This is an account of results in patent publication US20220304953A1, “PHARMACEUTICAL DOSAGE FORM COMPRISING METFORMIN AND CALCIUM CITRATE” (DSM IP ASSETS B.V., priority 2019, published 2022).

The conditions of series [1]: compared to calcium carbonate; cited from earlier work.
Series [2] in a line: Tablet hardness (Krämer UTS4 1, force needed to break a tablet axially). The series is classed as physicochemical. The note with it: tablets of example 2 with the named calcium salt, Prosolv SMCC90 binder; in words. On the procedure:
For compressing the tablets, a single punch press (Korsch XP-1, available at Korsch, Berlin) was used.
Tablet hardness was then measured using a Krämer UTS4 1 apparatus.
Said four tablet mixtures were compressed into tablets, similar to example 2. Tablet hardness was then measured.
Tablet hardness was measured as described in USP <1217> and EP<2.9.8.> with a Krämer UTS4 1 tester (Kraemer Elektronik GmbH, Darmstadt, Germany). The inventors measured the force needed to break a tablet axially. Presented are the average values of 10 measurements.

On to `O=C([O-])CC(O)(CC(=O)[O-])C(=O)[O-].O=C([O-])CC(O)(CC(=O)[O-])C(=O)[O-].[Ca+2].[Ca+2].[Ca+2]` [calcium citrate], for which, in series [1], the bioavailability result is “superior bioavailability than calcium carbonate”.

Turning to anhydrous calcium citrate, the “tablet hardness (compression profiles, FIG. 1)” value in series [2] is “a lot worse”.
